Laboratory results as given in publication PMC11235159, “Targeting a microbiota Wolbachian aminoacyl-tRNA synthetase to block its pathogenic host” (Science Advances, 2024).
Where two headings read alike, the source gives them in different places.

Tests used:
[1] = molecular target: T1, Wolbachia LeuRS (full-length) (Wolbachia sp. subsp. Brugia malayi, UniProt Q5GS31); assay: biochemical
Experimental: The full-length Wolbachia LeuRS construct corresponds to residues 1 to 865 of Wolbachia sp. Brugia malayi (Uniprot Q5GS31).
The IC50 values were calculated using a similar approach as described earlier ([19], [20]). Briefly, Wolbachia full-length LeuRS, total E. coli tRNA crude extract (Roche), and compounds were preincubated for 20 min in 50 mM Hepes-KOH (pH 8.0), 30 mM MgCl2, 30 mM KCl, 0.02% (wt/vol) bovine serum albumin, and 1 mM dithiothreitol with 20 μM [^14C]leucine (306 mCi/mmol; PerkinElmer) at 30°C. Reactions were started by the addition of 4 mM ATP and, at specific times, tRNA was precipitated by the addition of 10% (w/v) trichloroacetic acid (TCA), recovered by filtration (Millipore Multiscreen; MSHAN4B50), washed with 5% TCA (w/v), and counted by a liquid scintillation counter (Wallac). […] The reactivation rates (T½) were determined by measuring the time required for Wolbachia LeuRS to recover 50% of its activity. […] LeuRS inhibitor complexes were then diluted 200-fold, and enzyme activity was determined at various time intervals, as described before. Compound reactivation rates were determined by fitting the LeuRS activity reactivation curves to a one-phase exponential decay model (GraphPad Prism).
*The half-maximum inhibitory concentrations (IC50) and half-life inhibition times (T ½) were calculated from aminoacylation assays with recombinant protein and tRNA (see methods). […]

[2] = ITC titration of compound into AMP in the absence of protein (adduct formation); assay type: binding; settings: no protein
Experimental: To quantitatively assess the formation of the adenosine-based inhibitor adducts, we performed ITC experiments by titrating Cmpd9 into AMP in the absence of protein (fig. S3D). […]
spectra of AMP/ATP alone or in equimolar (5 mM) mixtures with Cmpd6. A zoomed-in view on the aromatic NMR signals of AMP/ATP is shown. Upon addition of the compounds, the NMR signals of the aromatic groups of AMP/ATP split into an additional two peaks corresponding to the two adducts formed. (C) Spontaneous cyclization of Cmpd6 with ATP/AMP leading to the formation of two diastereomer adducts based on the pseudo symmetry of the ribose. For convenience, adducts with an exo-ribose in panel c) are denote as ty pe “a”, and those with endo-ribose as adducts of type “b”. (D) Isothermal Titration Calorimetry experiment with Cmpd9 injected into AMP leading to the formation of adducts by Cmpd9.
The experiment was performed in triplicate.

[3] = molecular target: Wolbachia LeuRS (residues 219 to 418) (Wolbachia sp. subsp. Brugia malayi, UniProt Q5GS31); assay: Thermal shift assay (DSF), Wolbachia LeuRS editing domain; assay type: binding; settings: wild-type Wolbachia LeuRS construct, in the presence of AMP, vs free protein
Sequence of Wolbachia LeuRS (residues 219 to 418) (Q5GS31 219-418): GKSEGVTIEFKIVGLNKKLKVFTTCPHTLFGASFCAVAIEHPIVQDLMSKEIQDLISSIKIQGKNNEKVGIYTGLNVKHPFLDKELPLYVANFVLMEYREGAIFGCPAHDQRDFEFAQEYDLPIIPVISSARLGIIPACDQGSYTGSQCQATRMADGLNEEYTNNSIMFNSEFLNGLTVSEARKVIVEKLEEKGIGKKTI
Experimental: The thermal shift assays (TSAs) were performed using a qPCR CFX96 (Bio-Rad) with the FRET scan mode. Samples were prepared in a TSA buffer containing 50 mM Hepes (pH 7.5) and 150 mM NaCl. Each well contained 2 μl of samples as prepared for the crystallization trials, 18 μl of TSA buffer, and 20 μl of 10× SYPRO orange (S6650, Thermo Fisher Scientific).

[4] = molecular target: T1, Wolbachia LeuRS (full-length); assay: Reactivation rate (half-life of inhibition) of Wolbachia LeuRS after dilution of inhibitor complex; assay type: biochemical; settings: time for LeuRS to recover 50% of its activity after 200-fold dilution
Experimental: Wolbachianinfection model.
All reactions were performed in […]

[5] = tested on: W. pipientis (wAlbB) in C6/36 cells; assay: A·WOL anti-Wolbachia screening assay in infected C6/36 (wAlbB) insect cells; assay type: cell-based, Wolbachia pipientis; settings: for EC50: Wolbachia pipientis, 168 h, 7 days
Source text: To identify active compounds against Wolbachia, we carried out a high-throughput screening assay by testing a library of 202 benzoxaborole compounds in a host-cell model of Wolbachia infection ([5], [18]), which yielded an 18% hit rate. […] The screening in cells was combined with activity experiments (aminoacylation) performed with recombinant full-length Wolbachia LeuRS protein, which were used to calculate the half-maximum inhibitory concentration (IC50) for the most interesting compounds identified in the cell screening. Thus, this yielded compounds with both good anti-Wolbachian in vitro activity and in vivo efficacy, with representative compounds shown in table S1. […] Moreover, the potent in vitro activity of Cmpd9 translated in very good in cellulo efficacy (EC50 = 90 nM) in the Wolbachia infection model (Fig. 1, D and E, and table S1).
The efficacy of compounds, determined as EC50 against Wolbachia in infected host cells, was determined through the anti-Wolbachia consortium’s (A·WOL) routine screening assay as described previously ([18], [27], [29]). […] Compounds were incubated for 7 days with 2000 cells per well on a 384-well plate (CellCarrier-384 Ultra, PerkinElmer) in Leibovitz media (Life Technologies) supplemented with 20% fetal bovine serum (FBS, Thermo Fisher Scientific), 2% tryptose phosphate broth (Sigma-Aldrich), and 1% nonessential amino acids (Sigma-Aldrich). The endpoint readout utilized DNA staining of both the host cell nuclei and intracellular Wolbachia (SYTO 11) combined with a high content imaging system (Operetta, PerkinElmer) and analyzed using the associated Harmony software through a cytoplasm texture analysis. Stock solutions at 10 mM of chemical compounds were prepared in dimethyl sulfoxide (DMSO). Chemical compounds were provided by chemical manufactures (ChemPartner and Anacor Pharmaceuticals), and quality control was verified by NMR spectroscopy (^1H-NMR) and liquid chromatography coupled to mass spectrometry. […]
†The half-maximum effective concentrations (EC50) were calculated in cells infected with Wolbachia […]

[6] = molecular target: Wolbachia LeuRS (Wolbachia sp. subsp. Brugia malayi, UniProt Q5GS31); settings: ITC; for binding to Wolbachia LeuRS (in words): in the absence of AMP; for -T∆S / ∆G / ∆H: in the presence of AMP
Sequence of Wolbachia LeuRS (Q5GS31 219-418): as above
Source text: We designed constructs of the Wolbachia LeuRS editing domain (fig. S1), which bear the putative drug-binding pocket, for expression and purification of recombinant proteins. Two constructs gave soluble and well-behaving proteins that were used for biophysical and structural studies: a construct encoding for residues 219 to 418, herein named Wolbachia LeuRS; and another construct named Wolbachia LeuRS D1, for which part of an insertion specific to Wolbachia LeuRS (herein denoted as i1) and predicted to be highly disordered was partially deleted (354 to 377) (fig. S1). […] To quantitatively assess the affinity of these compounds to Wolbachia LeuRS, isothermal titration calorimetry (ITC) experiments were carried out.
ITC measurements were performed on a MicroCal iTC200 (GE Healthcare, PA) at 25°C. Wolbachia LeuRS samples were previously dialyzed into the ITC buffer 50 mM Hepes-KOH, pH 7.5, 30 mM KCl, 30 mM MgCl2, and 5 mM β-mercaptoethanol and adjusted to a final concentration of 70 μM. […] A typical ITC experiment consisted of 26 injections of 1.5 μl every 180 s at a stirring speed of 750 rpm. The raw data were processed using MicroCal PEAQ-ITC (v. 1.0.0.1259, Malvern) and Microcal Origin for ITC (v. 7.0).
Thermodynamic parameters were calculated from fitting the binding isotherms to a one-site binding site and
independent model. Experiments were done at least in duplicates.
All the experiments were performed in the presence of AMP, which acts as a surrogate of ATP or tRNALeu
terminal adenosine (Ade76).

T1 sequence (Q5GS31 whole entry): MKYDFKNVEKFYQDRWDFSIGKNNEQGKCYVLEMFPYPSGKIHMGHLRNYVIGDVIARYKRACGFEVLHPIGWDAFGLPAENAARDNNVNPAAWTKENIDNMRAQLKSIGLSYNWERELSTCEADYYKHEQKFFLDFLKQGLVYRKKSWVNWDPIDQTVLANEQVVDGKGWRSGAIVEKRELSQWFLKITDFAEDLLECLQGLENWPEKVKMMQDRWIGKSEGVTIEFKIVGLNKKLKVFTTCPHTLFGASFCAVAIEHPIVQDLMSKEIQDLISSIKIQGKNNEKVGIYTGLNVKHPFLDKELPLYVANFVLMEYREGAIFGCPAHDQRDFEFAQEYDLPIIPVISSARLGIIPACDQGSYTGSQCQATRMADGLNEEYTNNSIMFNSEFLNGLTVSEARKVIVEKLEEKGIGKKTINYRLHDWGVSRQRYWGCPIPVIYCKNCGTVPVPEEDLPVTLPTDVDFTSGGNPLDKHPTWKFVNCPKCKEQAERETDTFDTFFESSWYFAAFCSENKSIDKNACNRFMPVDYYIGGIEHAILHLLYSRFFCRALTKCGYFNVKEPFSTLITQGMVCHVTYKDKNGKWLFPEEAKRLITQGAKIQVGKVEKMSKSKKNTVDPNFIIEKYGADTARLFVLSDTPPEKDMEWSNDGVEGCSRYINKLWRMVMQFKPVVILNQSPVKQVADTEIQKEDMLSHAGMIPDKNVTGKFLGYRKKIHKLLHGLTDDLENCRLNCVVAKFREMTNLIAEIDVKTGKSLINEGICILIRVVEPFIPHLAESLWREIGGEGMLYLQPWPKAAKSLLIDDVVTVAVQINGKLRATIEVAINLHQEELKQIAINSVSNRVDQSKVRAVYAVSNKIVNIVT

| Compound | IC50 [1] [µM] | binding isotherm with AMP (in words) ([2]; compared with Cmpd9 into AMP) | increase of the melting temperature ∆Tm [3] [°C] | T ½ (half-life inhibition time, reactivation rate) [4] [h] | EC50 ([5]; C6/36 (wAlbB) cells, read-out: Efficacy in Infected Host EC50) [µM] | binding to Wolbachia LeuRS (in words) [6] | -T∆S [6] [kcal/mol] | ∆G [6] [kcal/mol] | ∆H [6] [kcal/mol] | Kd ([2]; compound titrated into AMP, one-site binding model) [µM] | Wolbachia load in host cells (in words) ([5]; 9 μM for 7 days, C6/36 (wAlbB)) | EC50 ([5]; Wolbachia infection model, C6/36 (wAlbB), read-out: in cellulo efficacy EC50) [µM] |
| --- | --- | --- | --- | --- | --- | --- | --- | --- | --- | --- | --- | --- |
| NC[C@H]1OB(O)c2c(OCCC(=O)Nc3nccs3)ccc(Br)c21 [Cmpd6] | 0.06 | equivalent binding isotherm | 13 | 0.0183 | > 10 | did not bind | -4.48 | -10.08 | -5.60 |  |  |  |
| CN(CCCOc1ccc(Br)c2c1B(O)O[C@@H]2CN)Cc1ccccc1 [Cmpd9] | 0.19 |  | 13 | 3.77 |  | did not bind | -5.31 | -11.24 | -5.93 | 1000 | Reduction of Wolbachia load | 0.09 |
| CCCC(N)C(=O)NC1C(O)C(CO)OC1n1cnc2c(N)ncnc21 (stereo not shown) [Nva2AA, reference compound] |  |  |  |  |  |  | 1.79 | -5.94 | -7.73 |  |  |  |
